# System: yeast genes (level of expressed mRNA)
# Experiment: DNA chip analysis of expressed mRNA of yeast genes after 2 h culture with a toxic chemical substance
# Type: cell-based, Saccharomyces cerevisiae S288C
# Method in brief: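 S. cerevisiae S288C grown at 25° C in YPD; toxicant added at log phase at growth-inhibitory, non-lethal levels for 2 h, untreated cells as control. Poly(A) mRNA reverse-transcribed with Cy3/Cy5-dUTP, hybridized to whole-genome chip at 65° C >12 h; value is fluorescence ratio versus untreated.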
substance,measurement,setting,value
Na2As [(1)],The level of expressed mRNA in the presence of chemical substance/,"yeast gene YFL010C, ratio to control without chemical substance, 2 h culture",1.0
same,The level of expressed mRNA in the presence of chemical substance/,"yeast gene YFL024C, ratio to control without chemical substance, 2 h culture",1.0
same,The level of expressed mRNA in the presence of chemical substance/The level of expressed mRNA in the absence of chemical substance,yeast gene YFL028C,1.2
same,The level of expressed mRNA in the presence of chemical substance/,"yeast gene YFL032W, ratio to control without chemical substance, 2 h culture",0.4
same,The level of expressed mRNA in the presence of chemical substance/The level of expressed mRNA in the absence of chemical substance,yeast gene YFL043C,1.0
same,The level of expressed mRNA in the presence of chemical substance/in the absence of chemical substance,yeast gene YGL035C,0.7
same,The level of expressed mRNA in the presence of chemical substance/,"yeast gene YGL037C, ratio to control without chemical substance, 2 h culture",1.5
same,The level of expressed mRNA in the presence of chemical substance/,"yeast gene YGL047W, ratio to control without chemical substance, 2 h culture",1.0
same,The level of expressed mRNA in the presence of chemical substance/,"yeast gene YGL053W, ratio to control without chemical substance, 2 h culture",1.5
same,The level of expressed mRNA in the presence of chemical substance/,"yeast gene YGL121C, ratio to control without chemical substance, 2 h culture",2.6
same,The level of expressed mRNA in the presence of chemical substance/The level of expressed mRNA in the absence of chemical substance,yeast gene YGL158W,1.1
same,The level of expressed mRNA in the presence of chemical substance/,"yeast gene YGL199C, ratio to control without chemical substance, 2 h culture",1.1
same,The level of expressed mRNA in the presence of chemical substance/The level of expressed mRNA in the absence of chemical substance,yeast gene YGL229C,0.6
same,The level of expressed mRNA in the presence of chemical substance/,"yeast gene YGR101W, ratio to control without chemical substance, 2 h culture",1.0
same,The level of expressed mRNA in the presence of chemical substance/,"yeast gene YGR110W, ratio to control without chemical substance, 2 h culture",1.6
same,The level of expressed mRNA in the presence of chemical substance/,"yeast gene YGR130C, ratio to control without chemical substance, 2 h culture",0.9
same,The level of expressed mRNA in the presence of chemical substance/The level of expressed mRNA in the absence of chemical substance,yeast gene YGR136W,0.9
same,The level of expressed mRNA in the presence of chemical substance/,"yeast gene YGR154C, ratio to control without chemical substance, 2 h culture",1.8
same,The level of expressed mRNA in the presence of chemical substance/The level of expressed mRNA in the absence of chemical substance,yeast gene YGR189C,1.1
same,The level of expressed mRNA in the presence of chemical substance/The level of expressed mRNA in the absence of chemical substance,yeast gene YGR213C,5.4
same,The level of expressed mRNA in the presence of chemical substance/,"yeast gene YGR221C, ratio to control without chemical substance, 2 h culture",0.9
same,The level of expressed mRNA in the presence of chemical substance/The level of expressed mRNA in the absence of chemical substance,yeast gene YGR257C,0.7
same,The level of expressed mRNA in the presence of chemical substance/in the absence of chemical substance,yeast gene YGR287C,1.3
same,The level of expressed mRNA in the presence of chemical substance/The level of expressed mRNA in the absence of chemical substance,yeast gene YHR004C,0.9
same,The level of expressed mRNA in the presence of chemical substance/The level of expressed mRNA in the absence of chemical substance,yeast gene YHR071W,1.5
same,The level of expressed mRNA in the presence of chemical substance/,"yeast gene YHR138C, ratio to control without chemical substance, 2 h culture",2.8
same,The level of expressed mRNA in the presence of chemical substance/The level of expressed mRNA in the absence of chemical substance,yeast gene YHR139C,3.0
same,The level of expressed mRNA in the presence of chemical substance/The level of expressed mRNA in the absence of chemical substance,yeast gene YHR142W,1.5
same,The level of expressed mRNA in the presence of chemical substance/,"yeast gene YHR199C, ratio to control without chemical substance, 2 h culture",1.9
same,The level of expressed mRNA in the presence of chemical substance/,"yeast gene YIL023C, ratio to control without chemical",1.1
same,The level of expressed mRNA in the presence of chemical substance/,"yeast gene YIL041W, ratio to control without chemical substance, 2 h culture",1.0
same,The level of expressed mRNA in the presence of chemical substance/,"yeast gene YIL087C, ratio to control without chemical substance, 2 h culture",1.3
same,The level of expressed mRNA in the presence of chemical substance/The level of expressed mRNA in the absence of chemical substance,yeast gene YIL123W,1.0
same,The level of expressed mRNA in the presence of chemical substance/The level of expressed mRNA in the absence of chemical substance,yeast gene YIL140W,0.7
same,The level of expressed mRNA in the presence of chemical substance/,"yeast gene YJL057C, ratio to control without chemical substance, 2 h culture",1.5
same,The level of expressed mRNA in the presence of chemical substance/,"yeast gene YJL066C, ratio to control without chemical substance, 2 h culture",0.9
same,The level of expressed mRNA in the presence of chemical substance/in the absence of chemical substance,yeast gene YJL070C,1.3
same,The level of expressed mRNA in the presence of chemical substance/The level of expressed mRNA in the absence of chemical substance,yeast gene YJL073W,0.8
same,The level of expressed mRNA in the presence of chemical substance/,"yeast gene YJL082W, ratio to control without chemical substance, 2 h culture",1.4
same,The level of expressed mRNA in the presence of chemical substance/The level of expressed mRNA in the absence of chemical substance,yeast gene YJL089W,1.1
same,The level of expressed mRNA in the presence of chemical substance/The level of expressed mRNA in the absence of chemical substance,yeast gene YJL116C,0.9
same,The level of expressed mRNA in the presence of chemical substance/,"yeast gene YJL151C, ratio to control without chemical substance, 2 h culture",1.0
same,The level of expressed mRNA in the presence of chemical substance/,"yeast gene YJL152W, ratio to control without chemical substance, 2 h culture",0.9
same,The level of expressed mRNA in the presence of chemical substance/,"yeast gene YJL161W, ratio to control without chemical substance, 2 h culture",1.7
same,The level of expressed mRNA in the presence of chemical substance/in the absence of chemical substance,yeast gene YJL167W,0.9
same,The level of expressed mRNA in the presence of chemical substance/,"yeast gene YJL171C, ratio to control without chemical substance, 2 h culture",2.3
same,The level of expressed mRNA in the presence of chemical substance/in the absence of chemical substance,yeast gene YJL216C,0.8
same,The level of expressed mRNA in the presence of chemical substance/The level of expressed mRNA in the absence of chemical substance,yeast gene YJR004C,0.2
same,The level of expressed mRNA in the presence of chemical substance/,"yeast gene YJR008W, ratio to control without chemical substance, 2 h culture",1.6
same,The level of expressed mRNA in the presence of chemical substance/,"yeast gene YJR054W, ratio to control without chemical",0.8
same,The level of expressed mRNA in the presence of chemical substance/The level of expressed mRNA in the absence of chemical substance,yeast gene YJR086W,1.2
same,The level of expressed mRNA in the presence of chemical substance/The level of expressed mRNA in the absence of chemical substance,yeast gene YKL008C,1.2
same,The level of expressed mRNA in the presence of chemical substance/The level of expressed mRNA in the absence of chemical substance,yeast gene YKL013C,1.4
same,The level of expressed mRNA in the presence of chemical substance/The level of expressed mRNA in the absence of chemical substance,yeast gene YKL039W,0.8
same,The level of expressed mRNA in the presence of chemical substance/The level of expressed mRNA in the absence of chemical substance,yeast gene YKL041W,1.2
same,The level of expressed mRNA in the presence of chemical substance/,"yeast gene YKL071W, ratio to control without chemical substance, 2 h culture",8.3
